Values after ≈ are worked out from the molar mass of the structure shown. Where two headings read alike, the source gives them in different places.
Key:
[1] = test system: Bacillus subtilis ATCC6633; assay: MIC, serial dilution method in Müller-Hinton agar; type: cell-based; settings: 37°C, 18 hours
Procedure: (§1) The antibacterial activities of the cephalosporin compounds of the formula (I) according to this invention, specifically the final product compounds of the Examples 1 to 6 given hereinafter, were assayed in term of their minimum inhibitory concentrations (MIC; mcg/ml) against various test bacteria, as determined according to a standard serial dilution method in Müller-Hinton agar medium (a product of Difico company), where the incubation was made at 37°C for 18 hours. For the comparison purpose, the antibacterial spectrum of a known compound, Cefalexin (abbreviated as CEX) was also assayed in the same way as above.

[2] = test system: Escherichia coli K-12 C600; assay: MIC, serial dilution method in Müller-Hinton agar; type: cell-based
Procedure: as §1

[3] = test system: Escherichia coli NIHJ-JS-2; assay: MIC, serial dilution method in Müller-Hinton agar; type: cell-based
Procedure: as §1

[4] = test system: Klebsiella oxytosa GN10560; assay: MIC, serial dilution method in Müller-Hinton agar; type: cell-based; settings: Klebsiella oxytosa GN10560, cefuroximase producing strain, 37°C, 18 hours
Procedure: as §1

[5] = test system: Klebsiella pneumoniae PCI602; assay: MIC, serial dilution method in Müller-Hinton agar; type: cell-based
Procedure: as §1

[6] = test system: Micrococcus luteus ATCC9341; assay: MIC, serial dilution method in Müller-Hinton agar; type: cell-based; settings: 37°C, 18 hours
Procedure: as §1

Proteus morganii IFO3848 = assay: MIC, serial dilution method in Müller-Hinton agar; type: cell-based; settings: Morganella morganii; Proteus morganii IFO3848; Müller-Hinton agar, 37°C, 18 hours; read-out: MIC
Procedure: as §1

Proteus rettgeri IFO3850 = assay: MIC, serial dilution method in Müller-Hinton agar; type: cell-based; settings: Providencia rettgeri
Procedure: as §1

Proteus vulgaris OX-19 = assay: MIC, serial dilution method in Müller-Hinton agar; type: cell-based; settings: OX19, 37°C, 18 hours
Procedure: as §1

[7] = test system: Pseudomonas aeruginosa IFO3445; assay: MIC, serial dilution method in Müller-Hinton agar; type: cell-based; settings: 37°C, 18 hours
Procedure: as §1

[8] = test system: Rms139/MI Pseudomonas aeruginosa; assay: MIC, serial dilution method in Müller-Hinton agar; type: cell-based; settings: 18 h
Procedure: as §1

[9] = test system: Rms212/Escherichia coli K-12 W3630; assay: MIC, serial dilution method in Müller-Hinton agar; type: cell-based; settings: 18 h
Procedure: as §1

[10] = test system: Rms213/Escherichia coli K-12 W3630; assay: MIC, serial dilution method in Müller-Hinton agar; type: cell-based; settings: 18 h
Procedure: as §1

[11] = test system: Rms823/Escherichia coli K-12 W3630; assay: MIC, serial dilution method in Müller-Hinton agar; type: cell-based; settings: 18 h
Procedure: as §1

[12] = test system: Rte16/Escherichia coli K-12 W3630; assay: MIC, serial dilution method in Müller-Hinton agar; type: cell-based; settings: 18 h
Procedure: as §1

[13] = test system: Salmonella enteritidis G14; assay: MIC, serial dilution method in Müller-Hinton agar; type: cell-based; settings: Salmonella enterica
Procedure: as §1

[14] = test system: Salmonella paratyphi 1015; assay: MIC, serial dilution method in Müller-Hinton agar; type: cell-based; settings: Salmonella enterica, 37°C, 18 hours
Procedure: as §1

[15] = test system: Salmonella schottmulleri 8006; assay: MIC, serial dilution method in Müller-Hinton agar; type: cell-based; settings: 37°C, 18 hours
Procedure: as §1

Salmonella typhi 901 = assay: MIC, serial dilution method in Müller-Hinton agar; type: cell-based; settings: Salmonella enterica, 18 h
Procedure: as §1

[16] = test system: Salmonella typhimurium IID971; assay: MIC, serial dilution method in Müller-Hinton agar; type: cell-based; settings: Salmonella enterica
Procedure: as §1

[17] = test system: Staphylococcus aureus FDA209P JC-1; assay: MIC, serial dilution method in Müller-Hinton agar; type: cell-based
Procedure: as §1

[18] = test system: Staphylococcus aureus MS353; assay: MIC, serial dilution method in Müller-Hinton agar; type: cell-based; settings: Staphylococcus aureus MS353; Müller-Hinton agar, 37°C, 18 hours; read-out: MIC
Procedure: as §1

[19] = test system: Staphylococcus aureus Terajima; assay: MIC, serial dilution method in Müller-Hinton agar; type: cell-based; settings: 37°C, 18 hours
Procedure: as §1

[20] = Test 1: urinary recovery after oral administration; type: in vivo; settings: mice (ICR-strain, female), 300 mcg per mouse, urine collected until 5 hours after administration, microbial assay, molar percentage
Procedure: To mice (ICR-strain, female, 4 weeks-aged) was orally administered a new cephalosporin compound according to this invention at a dosage of 300 mcg per mouse. Until the end of 5 hours after oral administration of the test cephalosporin compound, all the volumes of urine discharged by the treated mice were collected together, and the total amount of the test compound remaining in the collected urine was measured by a microbial assay method. The urinary recovery of the test compound was calculated in terms of percentage of the molar quantity of the test compound as recovered, against the molar quantity of the test compound as orally given.

[21] = K12C600, Escherichia coli K-12 C600, Müller-Hinton agar, 37°C, 18 hours, read-out: MIC
[22] = NIHJJS2, Escherichia coli NIHJ-JS-2, Müller-Hinton agar, 37°C, 18 hours, read-out: MIC
[23] = Klebsiella pneumoniae, PCI602, 18 h
[24] = Proteus rettgeri IFO3850, Müller-Hinton agar, 37°C, 18 hours, read-out: MIC
[25] = Staphylococcus aureus FDA209P JC-1, Müller-Hinton agar, 37°C, 18 hours, read-out: MIC
[26] = Escherichia coli, K12C600, 18 h
[27] = Escherichia coli, NIHJJS2, 18 h
[28] = Salmonella enteritidis G14, Müller-Hinton agar, 37°C, 18 hours, read-out: MIC

| Compound | MIC [1] [µg/mL] | MIC [4] [µg/mL] | MIC [5, 23] [µg/mL] | MIC [6] [µg/mL] | MIC (Proteus morganii IFO3848) [µg/mL] | MIC (Proteus rettgeri IFO3850; [24]) [µg/mL] | MIC (Proteus vulgaris OX-19) [µg/mL] | MIC [7] [µg/mL] | MIC [8] [µg/mL] | MIC [9] [µg/mL] | MIC [10] [µg/mL] | MIC [11] [µg/mL] | MIC [12] [µg/mL] | MIC [14] [µg/mL] | MIC [15] [µg/mL] | MIC (Salmonella typhi 901) [µg/mL] | MIC ([16]; 18 h) [µg/mL] | MIC [18] [µg/mL] | MIC [19] [µg/mL] | dose excreted [20] [%] | other results |
| --- | --- | --- | --- | --- | --- | --- | --- | --- | --- | --- | --- | --- | --- | --- | --- | --- | --- | --- | --- | --- | --- |
| C=CC1=C(C(=O)O)N2C(=O)C(NC(=O)[C@H](N)c3ccc(CO)c(O)c3)[C@H]2SC1 (stereo partly drawn) [Example 3 Compound, 7-{(R)-2-amino-2-(3-hydroxy-4-hydroxymethylphenyl)acetamido}-3-vinyl-3-cephem-4-carboxylic acid] | 0.05 (≈ 0.123 µM) | > 100 | 3.13 (≈ 7.72 µM) | 0.2 (≈ 0.493 µM) | 50 (≈ 123 µM) | 50 (≈ 123 µM) | 25 (≈ 61.7 µM) | > 100 | > 100 | 12.5 (≈ 30.8 µM) | 12.5 (≈ 30.8 µM) | > 100 | 12.5 (≈ 30.8 µM) | 3.13 (≈ 7.72 µM) | 3.13 (≈ 7.72 µM) | 3.13 (≈ 7.72 µM) | 3.13 (≈ 7.72 µM) | 1.56 (≈ 3.85 µM) | 0.2 (≈ 0.493 µM) | 65 | MIC [2, 21]: 6.25 µg/mL (≈ 15.4 µM); MIC [3, 22]: 6.25 µg/mL (≈ 15.4 µM); MIC ([13]; ENTERITIDIS, 18 h): 3.13 µg/mL (≈ 7.72 µM); MIC [17, 25]: 1.56 µg/mL (≈ 3.85 µM) |
| COCC1=C(C(=O)O)N2C(=O)C(NC(=O)[C@H](N)c3ccc(CO)c(O)c3)[C@H]2SC1 (stereo partly drawn) [Example 2 Compound, 7-{(R)-2-amino-2-(3-hydroxy-4-hydroxymethylphenyl)acetamido}-3-methoxymethyl-3-cephem-4-carboxylic acid] | 0.2 (≈ 0.472 µM) | > 100 | 6.25 (≈ 14.8 µM) | 0.1 (≈ 0.236 µM) | 50 (≈ 118 µM) | 25 (≈ 59 µM) | 100 (≈ 236 µM) | > 100 | > 100 | 50 (≈ 118 µM) | 12.5 (≈ 29.5 µM) | > 100 | 25 (≈ 59 µM) | 12.5 (≈ 29.5 µM) | 6.25 (≈ 14.8 µM) | 6.25 (≈ 14.8 µM) | 6.25 (≈ 14.8 µM) | 1.56 (≈ 3.68 µM) | 0.2 (≈ 0.472 µM) | 48.3 | MIC [2, 26]: 12.5 µg/mL (≈ 29.5 µM); MIC [3, 27]: 12.5 µg/mL (≈ 29.5 µM); MIC ([13]; ENTERITIDIS, 18 h): 6.25 µg/mL (≈ 14.8 µM); MIC [17, 25]: 1.56 µg/mL (≈ 3.68 µM) |
| CC1=C(C(=O)O)N2C(=O)C(NC(=O)[C@H](N)c3ccc(CO)c(O)c3)[C@H]2SC1 (stereo partly drawn) [Example 1 Compound, 7-{(R)-2-amino-2-(3-hydroxy-4-hydroxymethylphenyl)acetamido}-3-methyl-3-cephem-4-carboxylic acid] | 0.78 (≈ 1.98 µM) | 100 (≈ 254 µM) | 6.25 (≈ 15.9 µM) | 0.1 (≈ 0.254 µM) | > 100 | – | 100 (≈ 254 µM) | > 100 | > 100 | 12.5 (≈ 31.8 µM) | 12.5 (≈ 31.8 µM) | 100 (≈ 254 µM) | 12.5 (≈ 31.8 µM) | 12.5 (≈ 31.8 µM) | 12.5 (≈ 31.8 µM) | 6.25 (≈ 15.9 µM) | 6.25 (≈ 15.9 µM) | 3.13 (≈ 7.96 µM) | 0.2 (≈ 0.508 µM) | 65.1 | MIC [2, 26]: 12.5 µg/mL (≈ 31.8 µM); MIC [3, 27]: 12.5 µg/mL (≈ 31.8 µM); MIC (Proteus rettgeri IFO3850; IFO3850, 18 h): 12.5 µg/mL (≈ 31.8 µM); MIC [13, 28]: 50 µg/mL (≈ 127 µM); MIC [17, 25]: 3.13 µg/mL (≈ 7.96 µM) |
| C/C=C\C1=C(C(=O)O)N2C(=O)C(NC(=O)[C@H](N)c3ccc(CO)c(OC)c3)[C@H]2SC1 (stereo partly drawn) [Example 5 Compound, 7-{(R)-2-amino-2-(4-hydroxymethyl-3-methoxyphenyl)acetamido}-3-{(Z)-1-propenyl}-3-cephem-4-carboxylic acid] | 0.05 (≈ 0.115 µM) | > 100 | – | 0.025 (≈ 0.0577 µM) | 3.13 (≈ 7.22 µM) | 3.13 (≈ 7.22 µM) | 50 (≈ 115 µM) | > 100 | 100 (≈ 231 µM) | 12.5 (≈ 28.8 µM) | 25 (≈ 57.7 µM) | > 100 | 3.13 (≈ 7.22 µM) | 0.78 (≈ 1.8 µM) | 0.39 (≈ 0.9 µM) | 1.56 (≈ 3.6 µM) | – | 0.78 (≈ 1.8 µM) | 0.1 (≈ 0.231 µM) | 47.9 | MIC [2, 21]: 3.13 µg/mL (≈ 7.22 µM); MIC [3, 22]: 6.25 µg/mL (≈ 14.4 µM); MIC ([5]; Klebsiella pneumoniae PCI602, Müller-Hinton agar, 37°C, 18 hours, read-out: MIC): 0.78 µg/mL (≈ 1.8 µM); MIC [13, 28]: 0.78 µg/mL (≈ 1.8 µM); MIC ([16]; Salmonella typhimurium IID971, Müller-Hinton agar, 37°C, 18 hours, read-out: MIC): 3.13 µg/mL (≈ 7.22 µM); MIC ([17]; Staphylococcus aureus, FDA209P, 18 h): 1.56 µg/mL (≈ 3.6 µM) |

From EP0321364A2, “Orally administrable cephalosporin derivatives, and the production and uses thereof” (ZAIDAN HOJIN BISEIBUTSU KAGAKU KENKYU KAI, priority 1987, dated 1989)
